From US4455315A, “N-(Difluoromethoxy substituted phenyl)-dichloromaleimides used in agricultural and horticultural fungicidal methods” (Showa Denko Kabushiki Kaisha, priority 1980, dated 1984)

Assays:
Alternaria kikuchiana [1] = assay: Pear Black Spot-controlling Test; conditions: 500 ppm, six days after inoculation
Description: Pear Black Spot (Alternaria kikuchiana)-controlling Test
(§1) The resulting solution is sprayed on unfolded leaves of potted young pears (variety: Niju-seiki) in an amount corresponding to 600 l/10a per pot. After air-drying, the unfolded leaves are inoculated with Alternaria kikuchiana, by spraying a suspension of conidia thereof containing 30 conidia per microscopic field (magnification: X200).
(§2) After inoculation, the potted young pears are allowed to stand at a temperature of 27° C. in a moist room for one day and then transferred to a greenhouse. Six days after inoculation, the leaf area infested by pear black spot, i.e., the area of pathologic spots on a leaf is examined on 5 unfolded leaves per pot and an average infestation rate is then calculated.

[2] = system: potted young oranges (variety: Unshu); assay: Phytotoxicity of treating compound, residual activity test; conditions: 1000 ppm, 23 mm/hr of rain
Diaporthe citri [3] = assay: Citrus Melanose-controlling Test; format: in vivo; conditions: 500 ppm; for Infested Leaves (%): 24 days after inoculation; for Infestation Rate / Number of Leaves Showing Infestation Index 0 / Number of Leaves Showing Infestation Index 1 / Number of Leaves Showing Infestation Index 2 / Number of Leaves Showing Infestation Index 3 / Number of Leaves Showing Infestation Index 4: 24 days; for Infestation Rate: (Σnf/4N)×100; for Number of Leaves Showing Infestation Index 0: index 0 = 0-25% infested area; for Number of Leaves Showing Infestation Index 1: index 1 = 26-50% infested area; for Number of Leaves Showing Infestation Index 2: index 2 = 51-75% infested area; for Number of Leaves Showing Infestation Index 3: index 3 = 76-90% infested area; for Number of Leaves Showing Infestation Index 4: index 4 = 91-100% infested area
Diaporthe citri [4] = assay: Test of Residual Activity against Citrus Melanose; format: in vivo; conditions: 1000 ppm, 23 mm/hr of rain; for Infested Leaves (%): 24 days after inoculation; for Infestation Rate: 24 days, (Σnf/4N)×100; for Number of Leaves Showing Each Infestation Index: 0: index 0 = 0-25% infested area; for Number of Leaves Showing Each Infestation Index: 1: index 1 = 26-50% infested area; for Number of Leaves Showing Each Infestation Index: 2: index 2 = 51-75% infested area; for Number of Leaves Showing Each Infestation Index: 3: index 3 = 76-90% infested area; for Number of Leaves Showing Each Infestation Index: 4: index 4 = 91-100% infested area
[5] = system: potted young pears (variety: Niju-seiki); assay: Phytotoxicity of treating compound, Pear Black Spot test; conditions: 500 ppm, damaged area on leaves
Description: as §1, §2
*The phytotoxicity of the treating compound is evaluated according to the

[6] = system: potted young oranges (variety: Unshu); assay: Phytotoxicity of treating compound, Citrus Melanose test; conditions: 500 ppm
Alternaria kikuchiana [7] = assay: Spore-germination Inhibiting Test; format: cell-based; conditions: 10 ppm, 27° C., 20 hours
Description: Spore-germination Inhibiting Test for Alternaria kukuchiana An apricot medium is inoculated with Alternaria kikuchiana and incubated at a temperature of 27° C. for 7-10 days to form conidia on the medium. […] 0.02 Ml of the prepared spore suspension containing the compound according to the present invention is dropped on a slide glass and incubated at a temperature of 27° C. under moist conditions for 20 hours. Thereafter, whether or not the spores germinate is examined under a microscope and the spore-germination rate is then calculated.

| SMILES | Average Infestation Rate (%) (Based on infested area) (Alternaria kikuchiana [1]) | Phytotoxicity of Treating Compound [2] | Infested Leaves (%) (Diaporthe citri [3]) | Infestation Rate (Diaporthe citri [3]) | Number of Leaves Showing Infestation Index 0 (Diaporthe citri [3]) | Number of Leaves Showing Infestation Index 1 (Diaporthe citri [3]) | Number of Leaves Showing Infestation Index 2 (Diaporthe citri [3]) | Number of Leaves Showing Infestation Index 3 (Diaporthe citri [3]) | Number of Leaves Showing Infestation Index 4 (Diaporthe citri [3]) | Infested Leaves (%) (Diaporthe citri [4]) | Infestation Rate (Diaporthe citri [4]) | Number of Leaves Showing Each Infestation Index: 0 (Diaporthe citri [4]) | Number of Leaves Showing Each Infestation Index: 1 (Diaporthe citri [4]) | Number of Leaves Showing Each Infestation Index: 2 (Diaporthe citri [4]) | Number of Leaves Showing Each Infestation Index: 3 (Diaporthe citri [4]) | Number of Leaves Showing Each Infestation Index: 4 (Diaporthe citri [4]) | Phytotoxicity of Treating Compound [5] | Phytotoxicity of Treating Compound [6] | Spore-germination Rate (%) (Alternaria kikuchiana [7]) |
| --- | --- | --- | --- | --- | --- | --- | --- | --- | --- | --- | --- | --- | --- | --- | --- | --- | --- | --- | --- |
| O=C1C(Cl)=C(Cl)C(=O)N1c1ccccc1OC(F)F [compound 1, 2,3-dichloro-N-(o-difluoromethoxyphenyl)maleimide] | 9% | ± (1-5%) | 0.5% | 0.1 | 221 leaves | 1 leaves | 0 leaves | 0 leaves | 0 leaves | 22% | 7 | 122 leaves | 27 leaves | 6 leaves | 1 leaves | 0 leaves | ± (1-5%) | - (0%) | 7% |
| O=C1C(Cl)=C(Cl)C(=O)N1c1cccc(OC(F)F)c1 [compound 2, 2,3-dichloro-N-(m-difluoromethoxyphenyl)maleimide] | 9% | ± (1-5%) | 0.5% | 0.1 | 210 leaves | 1 leaves | 0 leaves | 0 leaves | 0 leaves | 2% | 0.5 | 181 leaves | 4 leaves | 0 leaves | 0 leaves | 0 leaves | ± (1-5%) | - (0%) | 0% |
| O=C1C=CC(=O)N1c1ccccc1OC(F)F [compound 4] | 15% | + (6-25%) | 1.0% | 0.2 | 218 leaves | 2 leaves | 0 leaves | 0 leaves | 0 leaves | 82% | 30 | 30 leaves | 82 leaves | 43 leaves | 10 leaves | 0 leaves | ± (1-5%) | - (0%) | 7% |
| O=C1C=CC(=O)N1c1cccc(OC(F)F)c1 [compound 5] | 55% | ++ (26-50%) | 85% | 43 | 33 leaves | 63 leaves | 71 leaves | 30 leaves | 18 leaves | 87% | 43 | 22 leaves | 43 leaves | 72 leaves | 28 leaves | 7 leaves | +++ (≥51%) | ++ (26-50%) | 5% |
| O=C1C=CC(=O)N1c1ccc(OC(F)F)cc1 [compound 6] | 36% | + (6-25%) | 98% | 43 | 257 leaves | 110 leaves | 103 leaves | 44 leaves | 0 leaves | 91% | 34 | 15 leaves | 86 leaves | 45 leaves | 13 leaves | 0 leaves | ++ (26-50%) | + (6-25%) | 4% |
| COc1ccccc1N1C(=O)C(Cl)=C(Cl)C1=O [compound 7] | 32% | + (6-25%) | 98% | 43 | 5 leaves | 85 leaves | 111 leaves | 32 leaves | 0 leaves | 29% | 9 | 115 leaves | 36 leaves | 11 leaves | 1 leaves | 0 leaves | ++ (26-50%) | + (6-25%) | 75% |
| COc1cccc(N2C(=O)C(Cl)=C(Cl)C2=O)c1 [compound 8] | 20% | - (0%) | 10% | 3.3 | 109 leaves | 14 leaves | 7 leaves | 1 leaves | 0 leaves | 78% | 31 | 35 leaves | 58 leaves | 61 leaves | 7 leaves | 0 leaves | ± (1-5%) | - (0%) | 25% |
| COc1ccc(N2C(=O)C(Cl)=C(Cl)C2=O)cc1 [compound 9] | 28% | - (0%) | 98% | 43 | 5 leaves | 86 leaves | 115 leaves | 30 leaves | 0 leaves | 36% | 12 | 113 leaves | 45 leaves | 18 leaves | 1 leaves | 0 leaves | ± (1-5%) | - (0%) | 9% |
| CC(C)NC(=O)N1CC(=O)N(c2cc(Cl)cc(Cl)c2)C1=O [iprodione, 1-Isopropylcarbamoyl-3-(3',5'-dichlorophenyl)-hydantoin] | 11% |  |  |  |  |  |  |  |  |  |  |  |  |  |  |  | - (0%) |  |  |
| [Cu+2].[O-]c1cccc2cccnc12.[O-]c1cccc2cccnc12 [oxinecopper, 8-Hydroxyquinoline-Cu] |  | ± (1-5%) |  |  |  |  |  |  |  | 81% | 26 | 35 leaves | 113 leaves | 37 leaves | 2 leaves | 0 leaves |  |  |  |
